# Test: Stability study of crystal form A
# Assay type: physicochemical
# Conditions: for Crystal form / Purity: 25° C.
# From the text: Experimental Example 1 Stability Study
smiles,measurement,setting,value
"CCOc1ccc(Cc2cc([C@]3(OCC)O[C@H](CO)[C@@H](O)[C@H](O)[C@H]3O)ccc2Cl)cc1 [crystal form A, (2S,3R,4S,5S,6R)-2-(4-chloro-3-(4-ethoxybenzyl)phenyl)-2-ethoxy-6-(methylhydroxy)tetrahydro-2H-pyran-3,4,5-triol]",Crystal form,0 day,Crystal form A
same,Purity,0 day,99.45%
same,Crystal form,1 month,Crystal form A
same,Purity,1 month,99.41%
same,Crystal form,3 months,Crystal form A
same,Purity,3 months,99.43%
same,Crystal form after drying,dried under vacuum at 50° C. for 3 hours,not changed
same,Crystal form after storage,"room temperature (25° C.), 3 months",not changed
